These results are taken from patent US9790169B2, “IDO inhibitors” (BRISTOL-MYERS SQUIBB COMPANY, priority 2015, dated 2017).

What is called IC50 is the concentration that gives 50% inhibition.

The structures appear in SMILES notation.

This assay has as its target human IDO1 (Homo sapiens, UniProt P14902). The assay can be described thus: Assessment of human IDO-1 inhibitory activity in HEK cells (human IDO1/HEK293 cells, kynurenine read-out with Ehrlich reagent, absorbance 490 nm). The assay is classed as cell-based. Set-up: expressed in transfected cells. The following applies: HEK Human IDO-1 cellular assay. In outline: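 HEK293 cells stably expressing human IDO1 were seeded at 10,000 per well in phenol red-free RPMI with 10% FBS, treated with compound for 20 h at 37 °C. Kynurenine was measured after TCA (0.2% final) and 30 min at 50 °C, using Ehrlich reagent, A490. IC50 normalised to DMSO (0%) and 500 nM reference standard (100%).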

Sequence of human IDO1 (P14902 whole entry): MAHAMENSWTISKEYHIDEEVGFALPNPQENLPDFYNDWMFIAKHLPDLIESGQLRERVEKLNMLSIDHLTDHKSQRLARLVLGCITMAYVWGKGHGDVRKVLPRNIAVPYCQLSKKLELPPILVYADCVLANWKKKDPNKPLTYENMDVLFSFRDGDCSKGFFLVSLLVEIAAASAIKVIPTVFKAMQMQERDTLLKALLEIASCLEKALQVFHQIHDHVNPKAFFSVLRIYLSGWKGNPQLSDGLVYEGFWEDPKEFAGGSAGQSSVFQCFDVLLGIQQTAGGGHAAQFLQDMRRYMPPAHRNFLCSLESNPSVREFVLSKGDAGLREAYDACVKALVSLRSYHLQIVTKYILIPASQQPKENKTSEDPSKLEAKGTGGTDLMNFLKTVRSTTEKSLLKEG

Regarding `CCOc1ncc(Nc2cc(C(C)CC(=O)O)ccc2N(CC(C)(C)O)C2CCOCC2)cn1` (single isomer, unassigned) [Example 191, 3-(3-((2-Ethoxypyrimidin-5-yl)amino)-4-((2-hydroxy-2-methylpropyl)(tetrahydro-2H-pyran-4-yl)amino)phenyl)butanoic acid], the IC50 was above 50 nM. As to `COc1ncc(Nc2cc(C(C)CC(=O)O)ccc2N(CC(C)(C)O)C2CCOCC2)cn1` (single isomer, unassigned) [Example 192, 3-(4-((2-hydroxy-2-methylpropyl)(tetrahydro-2H-pyran-4-yl)amino)-3-((2-methoxypyrimidin-5-yl)amino)phenyl)butanoic acid], the IC50 is above 50 nM. Take `CC(CC(=O)O)c1ccc(N(CC(C)(C)O)C2CCOCC2)c(Nc2ccc(C#N)cc2)c1` (single isomer, unassigned) [Example 194, 3-(3-((4-cyanophenyl)amino)-4-((2-hydroxy-2-methylpropyl)(tetrahydro-2H-pyran-4-yl)amino)phenyl)butanoic acid]: the 50% inhibitory concentration (IC50) is below 50 nM. Take `CC(CC(=O)O)c1ccc(N(CC(C)(C)O)C2CCOCC2)c(Nc2ccc(Cl)cc2)c1` (single isomer, unassigned) [Example 195, 3-(3-((4-Chlorophenyl)amino)-4-((2-hydroxy-2-methylpropyl)(tetrahydro-2H-pyran-4-yl)amino)phenyl)butanoic acid]: the IC50 is below 5 nM. In the case of `CC(CC(=O)O)c1ccc(N(CC(C)(C)O)C2CCOCC2)c(Nc2ccc(C#N)cc2)c1` (single isomer, unassigned) [Example 196, 3-(3-((4-Cyanophenyl)amino)-4-((2-hydroxy-2-methylpropyl)(tetrahydro-2H-pyran-4-yl)amino)phenyl)butanoic acid], the half-maximal inhibitory concentration (IC50) was below 5 nM. The value for `CCOc1ncc(Nc2cc([C@@H](CC)CC(=O)O)ccc2N(CC(C)(C)O)C2CCOCC2)cn1` (single isomer, unassigned) [Example 197] was above 50 nM; that for `CC[C@@H](CC(=O)O)c1ccc(N(CC(C)(C)O)C2CCOCC2)c(Nc2ccc(Cl)cc2)c1` (single isomer, unassigned) [Example 198] was below 5 nM.

Regarding `CC[C@@H](CC(=O)O)c1ccc(N(CC(C)(C)O)C2CCOCC2)c(Nc2ccc3c(c2)OC(F)(F)O3)c1` (single isomer, unassigned) [Example 199], the half-maximal inhibitory concentration (IC50) was below 5 nM. With `CC[C@@H](CC(=O)O)c1ccc(N(CC(C)(C)O)C2CCOCC2)c(Nc2ccc(Cl)c(OCC(F)(F)F)c2)c1` (single isomer, unassigned) [Example 200], the IC50 was below 50 nM. Under `CCOc1ccc(Nc2cc([C@@H](CC)CC(=O)O)ccc2N(CC(C)(C)O)C2CCOCC2)c(F)c1` (single isomer, unassigned) [Example 201] stands below 50 nM; under `CCOc1ncc(Nc2cc([C@H](CC)CC(=O)O)ccc2N(CC(C)(C)O)C2CCOCC2)cn1` (single isomer, unassigned) [Example 202], above 50 nM; under `CC[C@H](CC(=O)O)c1ccc(N(CC(C)(C)O)C2CCOCC2)c(Nc2ccc(Cl)cc2)c1` (single isomer, unassigned) [Example 203], below 5 nM.

With `CC[C@H](CC(=O)O)c1ccc(N(CC(C)(C)O)C2CCOCC2)c(Nc2ccc3c(c2)OC(F)(F)O3)c1` (single isomer, unassigned) [Example 204], the IC50 is below 5 nM. Under `CC[C@H](CC(=O)O)c1ccc(N(CC(C)(C)O)C2CCOCC2)c(Nc2ccc(Cl)c(OCC(F)(F)F)c2)c1` (single isomer, unassigned) [Example 205] stands below 50 nM; under `CCOc1ccc(Nc2cc([C@H](CC)CC(=O)O)ccc2N(CC(C)(C)O)C2CCOCC2)c(F)c1` (single isomer, unassigned) [Example 206], below 50 nM; under `CC[C@@H](CC(=O)O)c1ccc(N(CC(C)(C)O)C2CCOCC2)c(NC(=O)Nc2ccc(C)cc2)c1` (single isomer, unassigned) [Example 207], above 50 nM. For `CC[C@H](CC(=O)O)c1ccc(N(CC(C)(C)O)C2CCOCC2)c(NC(=O)Nc2ccc(C)cc2)c1` (single isomer, unassigned) [Example 208], the IC50 was above 50 nM. The value for `CC[C@H](CC(=O)O)c1ccc(N(CC(C)C)C2CCS(=O)(=O)CC2)c(NC(=O)Nc2ccc(C)cc2)c1` (single isomer, unassigned) [Example 209] was above 50 nM; that for `CC[C@@H](CC(=O)O)c1ccc(N(CC(C)C)C2CCS(=O)(=O)CC2)c(NC(=O)Nc2ccc(C)cc2)c1` (single isomer, unassigned) [Example 210] was above 50 nM; that for `CC[C@H](CC(=O)O)c1ccc(N(CC(C)C)C2CCS(=O)(=O)CC2)c(NC(=O)Nc2ccc(OC)cc2F)c1` (single isomer, unassigned) [Example 211] was above 50 nM. Regarding `CCOc1ccc(NC(=O)Nc2cc([C@H](CC)CC(=O)O)ccc2N(CC(C)C)C2CCS(=O)(=O)CC2)cc1` (single isomer, unassigned) [Example 212], the IC50 is above 50 nM. `CC[C@H](CC(=O)O)c1ccc(N(CC(C)C)C2CCS(=O)(=O)CC2)c(NC(=O)Nc2cc(C)on2)c1` (single isomer, unassigned) [Example 213]: the IC50 was above 50 nM. Regarding `CC[C@H](CC(=O)O)c1ccc(N(CC(C)C)C2CCS(=O)(=O)CC2)c(Nc2ccc3c(c2)OC(F)(F)O3)c1` (single isomer, unassigned) [Example 215], the IC50 is below 5 nM. Under `CC[C@@H](CC(=O)O)c1ccc(N(CC(C)C)C2CCS(=O)(=O)CC2)c(NC(=O)Nc2ccc(OC)cc2F)c1` (single isomer, unassigned) [Example 216] stands above 50 nM. Regarding `CCOc1ccc(NC(=O)Nc2cc([C@@H](CC)CC(=O)O)ccc2N(CC(C)C)C2CCS(=O)(=O)CC2)cc1` (single isomer, unassigned) [Example 217], the IC50 is above 50 nM. `CC[C@@H](CC(=O)O)c1ccc(N(CC(C)C)C2CCS(=O)(=O)CC2)c(Nc2ccc3sc(C)nc3c2)c1` (single isomer, unassigned) [Example 219]: the IC50 was below 5 nM.

Consider `CC[C@@H](CC(=O)O)c1ccc(N(CC(C)C)C2CCS(=O)(=O)CC2)c(Nc2ccc3c(c2)OC(F)(F)O3)c1` (single isomer, unassigned) [Example 220], for which the IC50 was below 5 nM. Consider `CC[C@@H](CC(=O)O)c1ccc(N(CC(C)(C)O)C2CCCCC2)c(Nc2ccc(F)cc2)c1` (single isomer, unassigned) [Example 225], for which the IC50 is below 5 nM. Turning to `CC[C@@H](CC(=O)O)c1ccc(N(CC(C)(C)O)C2CCCCC2)c(Nc2ccc(OC(F)F)cc2)c1` (single isomer, unassigned) [Example 226], the IC50 is below 5 nM. Consider `CC[C@@H](CC(=O)O)c1ccc(N(CC(C)(C)O)C2CCCCC2)c(Nc2ccc(C#N)cc2)c1` (single isomer, unassigned) [Example 227], for which the 50% inhibitory concentration (IC50) is below 5 nM. In the case of `CCOc1ncc(Nc2cc([C@@H](CC)CC(=O)O)ccc2N(CC(C)(C)O)C2CCCCC2)cn1` (single isomer, unassigned) [Example 229], the half-maximal inhibitory concentration (IC50) is below 50 nM. Under `CCc1cnc(Nc2cc([C@@H](CC)CC(=O)O)ccc2N(CC(C)(C)O)C2CCCCC2)nc1` (single isomer, unassigned) [Example 230] stands below 50 nM; under `CC[C@@H](CC(=O)O)c1ccc(N(CC(C)(C)O)C2CCCCC2)c(Nc2ccc(Cl)cc2)c1` (single isomer, unassigned) [Example 231], below 5 nM; under `CC[C@H](CC(=O)O)c1ccc(N(CC(C)(C)O)C2CCCCC2)c(Nc2ccc(F)cc2)c1` (single isomer, unassigned) [Example 236], below 50 nM.

For `CC[C@H](CC(=O)O)c1ccc(N(CC(C)(C)O)C2CCCCC2)c(Nc2ccc(OC(F)F)cc2)c1` (single isomer, unassigned) [Example 237], the IC50 is below 5 nM.

Consider `CC[C@H](CC(=O)O)c1ccc(N(CC(C)(C)O)C2CCCCC2)c(Nc2ccc(C#N)cc2)c1` (single isomer, unassigned) [Example 238], for which the IC50 is below 5 nM. Consider `CCc1ccc(Nc2cc([C@H](CC)CC(=O)O)ccc2N(CC(C)(C)O)C2CCCCC2)cc1` (single isomer, unassigned) [Example 239], for which the half-maximal inhibitory concentration (IC50) was below 50 nM. The value for `CCOc1ncc(Nc2cc([C@H](CC)CC(=O)O)ccc2N(CC(C)(C)O)C2CCCCC2)cn1` (single isomer, unassigned) [Example 240] was below 50 nM; that for `CCc1cnc(Nc2cc([C@H](CC)CC(=O)O)ccc2N(CC(C)(C)O)C2CCCCC2)nc1` (single isomer, unassigned) [Example 241] was below 50 nM; that for `CC[C@H](CC(=O)O)c1ccc(N(CC(C)(C)O)C2CCCCC2)c(Nc2ccc(Cl)cc2)c1` (single isomer, unassigned) [Example 242] was below 5 nM. With `CCC(CC(=O)O)c1ccc(N2CC[C@H](O)C2)c(Nc2ccc(Cl)cc2)c1` (single isomer, unassigned) [Example 266], the half-inhibitory concentration (IC50) was above 50 nM. Under `CCOc1ncc(Nc2cc([C@@H](CC)CC(=O)O)ccc2N(CC2CC2)CC(C)(C)O)cn1` (single isomer, unassigned) [Example 270] stands above 50 nM; under `CC[C@H](CC(=O)O)c1ccc(N(CC2CC2)CC(C)(C)O)c(Nc2ccc(Cl)cc2)c1` (single isomer, unassigned) [Example 271], below 5 nM; under `CC[C@H](CC(=O)O)c1ccc(N(CC2CC2)CC(C)(C)O)c(Nc2ccc(C#N)cc2)c1` (single isomer, unassigned) [Example 272], below 5 nM. In the case of `CC[C@H](CC(=O)O)c1ccc(N(CC2CC2)CC(C)(C)O)c(Nc2ccc(F)cc2)c1` (single isomer, unassigned) [Example 273], the IC50 is below 50 nM. The value for `CCOc1ncc(Nc2cc([C@H](CC)CC(=O)O)ccc2N(CC2CC2)CC(C)(C)O)cn1` (single isomer, unassigned) [Example 274] was below 50 nM.
